Legend:
[1] = molecular target: Methyl-CpG-binding domain protein 4 (Homo sapiens) (UniProt O95243); conditions: Hit No;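 also: MBD4 activity read as fluorescence at 594 nm from cleavage and release of a quenched duplex DNA oligonucleotide, with APE1 coupled to incise the strand and raise turnover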
Description: Inhibition of MBD4 by quantifying inhibition of MBD4-mediated cleavage and dissociation of quenched duplex DNA oligonucleotides, measured as fluorescence at 594 nm. To generate a functional strand incision and increase turn-over this assay is coupled to APE1.

[2] = molecular target: Endonuclease 8-like 1 (Homo sapiens) (UniProt Q96FI4); conditions: Compound Concentration 10.0 uM, Hit No;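 also: fluorescence at 594 nm from quenched duplex DNA oligonucleotides released by NEIL1 cleavage and strand separation, reported as reduction of this enzyme activity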
Chain of Endonuclease 8-like 1 (Homo sapiens) (Q96FI4 whole entry): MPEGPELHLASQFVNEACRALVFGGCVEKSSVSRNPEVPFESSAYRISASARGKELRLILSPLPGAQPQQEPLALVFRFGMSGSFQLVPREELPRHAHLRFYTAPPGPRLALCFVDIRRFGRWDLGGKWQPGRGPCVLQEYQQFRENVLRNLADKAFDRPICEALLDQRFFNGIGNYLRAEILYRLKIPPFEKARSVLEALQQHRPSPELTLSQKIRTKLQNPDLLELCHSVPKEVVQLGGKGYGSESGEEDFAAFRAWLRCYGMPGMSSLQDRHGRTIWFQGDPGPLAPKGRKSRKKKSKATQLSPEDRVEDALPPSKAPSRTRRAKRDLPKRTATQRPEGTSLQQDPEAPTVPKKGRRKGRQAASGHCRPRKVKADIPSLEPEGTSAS
Description: Inhibition of NEIL1 by quantifying inhibition of NEIL1-mediated cleavage and dissociation of quenched duplex DNA oligonucleotides, measured as fluorescence at 594 nm.

[3] = molecular target: T1, Endonuclease III-like protein 1 (Homo sapiens) (UniProt P78549); conditions: Hit No;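 also: enzyme assay tracking NTHL1 cutting and release of a quenched double-stranded DNA oligo substrate, read as fluorescence at 594 nm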
T1 sequence (whole entry): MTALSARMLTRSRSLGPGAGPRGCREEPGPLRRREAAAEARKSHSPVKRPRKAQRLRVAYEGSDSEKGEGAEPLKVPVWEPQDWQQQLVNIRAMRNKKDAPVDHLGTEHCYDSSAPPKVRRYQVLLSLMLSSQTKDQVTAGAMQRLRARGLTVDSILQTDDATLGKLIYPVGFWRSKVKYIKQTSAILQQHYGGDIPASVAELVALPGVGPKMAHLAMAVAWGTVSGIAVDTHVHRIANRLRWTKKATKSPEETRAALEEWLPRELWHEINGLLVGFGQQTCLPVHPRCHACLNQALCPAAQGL
Description: Inhibition of NTHL1 by quantifying inhibition of NTHL1-mediated cleavage and dissociation of quenched duplex DNA oligonucleotides, measured as fluorescence at 594 nm.

[4] = molecular target: T2, Single-strand selective monofunctional uracil DNA glycosylase (Homo sapiens) (UniProt Q53HV7); conditions: Hit No;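 also: enzymatic SMUG1 assay coupled with APE1, reading fluorescence at 594 nm released when a quenched double-stranded DNA oligonucleotide substrate is cleaved and separated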
T2 sequence (whole entry): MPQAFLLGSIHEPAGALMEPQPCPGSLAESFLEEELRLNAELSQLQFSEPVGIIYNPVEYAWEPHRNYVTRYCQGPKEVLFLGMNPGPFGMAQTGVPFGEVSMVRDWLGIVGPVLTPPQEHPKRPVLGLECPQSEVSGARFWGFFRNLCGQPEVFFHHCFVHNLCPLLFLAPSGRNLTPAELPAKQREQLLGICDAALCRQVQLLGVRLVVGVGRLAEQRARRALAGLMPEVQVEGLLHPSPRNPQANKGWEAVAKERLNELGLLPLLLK
Description: Inhibition of SMUG1 by quantifying inhibition of SMUG1-mediated cleavage and dissociation of quenched duplex DNA oligonucleotides, measured as fluorescence at 594 nm. To generate a functional strand incision and increase turn-over this assay is coupled to APE1.

[5] = molecular target: N-glycosylase/DNA lyase (Homo sapiens) (UniProt O15527); conditions: Hit No;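 also: OGG1 cleavage of a quenched duplex DNA oligonucleotide, coupled to APE1 for strand incision, read as fluorescence at 594 nm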
Chain of N-glycosylase/DNA lyase (Homo sapiens) (O15527 whole entry): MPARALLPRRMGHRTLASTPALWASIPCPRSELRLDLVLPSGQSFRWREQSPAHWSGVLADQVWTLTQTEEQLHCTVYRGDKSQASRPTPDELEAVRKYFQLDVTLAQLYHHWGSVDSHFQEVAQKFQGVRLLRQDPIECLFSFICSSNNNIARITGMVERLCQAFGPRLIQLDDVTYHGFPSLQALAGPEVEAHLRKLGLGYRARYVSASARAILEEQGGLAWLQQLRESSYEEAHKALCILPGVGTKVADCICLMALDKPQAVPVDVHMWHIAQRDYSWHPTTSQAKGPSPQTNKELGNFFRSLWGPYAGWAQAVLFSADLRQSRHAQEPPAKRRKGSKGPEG
Description: Inhibition of OGG1 by quantifying inhibition of OGG1-mediated cleavage and dissociation of quenched duplex DNA oligonucleotides, measured as fluorescence at 594 nm. To generate a functional strand incision and increase turn-over this assay is coupled to APE1.

[6] = molecular target: T3, Endonuclease 8-like 2 (Homo sapiens) (UniProt Q969S2); conditions: Hit No;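 also: fluorescence at 594 nm reports NEIL2 cutting and release of a quenched double-stranded DNA oligo substrate, reduced signal read as inhibition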
T3 sequence (whole entry): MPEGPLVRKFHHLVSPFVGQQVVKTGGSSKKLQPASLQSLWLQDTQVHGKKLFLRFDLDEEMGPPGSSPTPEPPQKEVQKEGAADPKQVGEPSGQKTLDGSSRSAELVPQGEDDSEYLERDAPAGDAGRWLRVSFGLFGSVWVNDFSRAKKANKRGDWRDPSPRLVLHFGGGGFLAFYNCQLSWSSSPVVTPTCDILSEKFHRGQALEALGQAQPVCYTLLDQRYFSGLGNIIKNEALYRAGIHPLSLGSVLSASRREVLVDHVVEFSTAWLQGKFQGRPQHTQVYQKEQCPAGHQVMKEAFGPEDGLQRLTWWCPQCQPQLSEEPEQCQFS
Description: Inhibition of NEIL2 by quantifying inhibition of NEIL2-mediated cleavage and dissociation of quenched duplex DNA oligonucleotides, measured as fluorescence at 594 nm.

[7] = molecular target: G/T mismatch-specific thymine DNA glycosylase (Homo sapiens) (UniProt Q13569); conditions: Hit No;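 also: human TDG cleavage of quenched duplex DNA oligonucleotides coupled to APE1, strand release read as fluorescence at 594 nm, inhibition of TDG activity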
Chain of G/T mismatch-specific thymine DNA glycosylase (Homo sapiens) (Q13569 whole entry): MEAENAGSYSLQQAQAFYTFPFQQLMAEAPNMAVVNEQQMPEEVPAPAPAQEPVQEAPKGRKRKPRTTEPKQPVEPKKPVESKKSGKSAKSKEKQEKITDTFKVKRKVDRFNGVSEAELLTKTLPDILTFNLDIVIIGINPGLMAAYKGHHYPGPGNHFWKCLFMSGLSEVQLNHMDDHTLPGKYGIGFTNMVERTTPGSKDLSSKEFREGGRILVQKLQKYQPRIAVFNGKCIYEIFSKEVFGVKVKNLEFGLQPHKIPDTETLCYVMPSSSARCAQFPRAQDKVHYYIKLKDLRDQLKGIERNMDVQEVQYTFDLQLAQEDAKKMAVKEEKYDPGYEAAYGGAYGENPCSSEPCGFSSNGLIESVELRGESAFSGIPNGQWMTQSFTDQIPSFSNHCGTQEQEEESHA
Description: Inhibition of TDG by quantifying inhibition of TDG-mediated cleavage and dissociation of quenched duplex DNA oligonucleotides, measured as fluorescence at 594 nm. To generate a functional strand incision and increase turn-over this assay is coupled to APE1.

[8] = molecular target: Uracil-DNA glycosylase (Homo sapiens) (UniProt P13051); conditions: Hit No;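 also: UNG excision on a quenched double-stranded DNA oligo probe, with APE1 added for strand incision and turnover, read as fluorescence at 594 nm as strands separate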
Chain of Uracil-DNA glycosylase (Homo sapiens) (P13051 whole entry): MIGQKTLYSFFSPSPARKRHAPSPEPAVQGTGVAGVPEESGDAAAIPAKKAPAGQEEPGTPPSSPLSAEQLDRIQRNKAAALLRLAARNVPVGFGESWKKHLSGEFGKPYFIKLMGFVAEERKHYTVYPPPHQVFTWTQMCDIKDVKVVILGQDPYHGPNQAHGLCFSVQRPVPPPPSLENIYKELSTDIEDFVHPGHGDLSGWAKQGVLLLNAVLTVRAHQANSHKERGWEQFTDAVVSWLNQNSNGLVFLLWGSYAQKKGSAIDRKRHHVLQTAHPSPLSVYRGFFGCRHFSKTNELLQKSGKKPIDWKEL
Description: Inhibition of UNG by quantifying inhibition of UNG-mediated cleavage and dissociation of quenched duplex DNA oligonucleotides, measured as fluorescence at 594 nm. To generate a functional strand incision and increase turn-over this assay is coupled to APE1.

Chain of Methyl-CpG-binding domain protein 4 (Homo sapiens) (O95243 whole entry, the tested form may be a part): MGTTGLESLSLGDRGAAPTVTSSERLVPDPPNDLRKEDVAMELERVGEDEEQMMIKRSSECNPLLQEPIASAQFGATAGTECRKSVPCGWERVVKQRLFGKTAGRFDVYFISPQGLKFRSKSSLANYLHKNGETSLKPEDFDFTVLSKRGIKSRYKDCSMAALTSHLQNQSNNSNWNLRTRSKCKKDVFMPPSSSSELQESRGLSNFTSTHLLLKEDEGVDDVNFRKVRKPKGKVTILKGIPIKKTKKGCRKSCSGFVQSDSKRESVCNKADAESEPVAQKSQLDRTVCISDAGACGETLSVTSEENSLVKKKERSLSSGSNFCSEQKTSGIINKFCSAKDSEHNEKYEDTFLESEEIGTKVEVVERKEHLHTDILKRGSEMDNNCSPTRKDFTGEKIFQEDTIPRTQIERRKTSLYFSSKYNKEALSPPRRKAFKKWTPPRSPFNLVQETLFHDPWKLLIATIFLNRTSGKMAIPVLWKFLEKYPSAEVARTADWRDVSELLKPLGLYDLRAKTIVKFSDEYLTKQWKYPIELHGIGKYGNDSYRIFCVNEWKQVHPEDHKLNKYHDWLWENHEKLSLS

SMILES	inhibition ([1]; Compound Concentration 10.0 uM) [%]	inhibition [2] [%]	inhibition ([3]; Compound Concentration 10.0 uM) [%]	inhibition ([4]; Compound Concentration 10.0 uM) [%]	inhibition ([5]; Compound Concentration 10.0 uM) [%]	inhibition ([6]; Compound Concentration 10.0 uM) [%]	inhibition ([7]; Compound Concentration 10.0 uM) [%]	inhibition ([8]; Compound Concentration 10.0 uM) [%]	inhibition ([1]; Compound Concentration 1.0 uM) [%]	inhibition ([3]; Compound Concentration 1.0 uM) [%]	inhibition ([4]; Compound Concentration 1.0 uM) [%]	inhibition ([5]; Compound Concentration 1.0 uM) [%]	inhibition ([6]; Compound Concentration 1.0 uM) [%]	inhibition ([7]; Compound Concentration 1.0 uM) [%]	inhibition ([8]; Compound Concentration 1.0 uM) [%]
CC(=O)Nc1ccc(-c2cc(-c3ccccc3)nc3cc(C(=O)NCCCn4ccnc4)nn23)cc1	52.7	-3.92	3.31	10.4	-1.79	-6.36	38.6	5.92							
Cc1c(NC(=O)c2cc(C(N)=O)nc3cc(F)ccc23)c(C(F)(F)F)nn1Cc1ccc(C#N)cc1	51.7	-9.07	-9.83	19.9	3.97	8.19	35.6	1.44							
C=C1/C(=C\C=C2/CCC[C@]3(C)[C@@H]([C@H](C)/C=C/C=C/C(O)(CC)CC)CC[C@@H]23)C[C@@H](O)C[C@@H]1O	53.8	0.77	-4.57	-1.6	-1.05	15.3	28.5	0.169							
Cc1cc(C(=O)N2CCN(C3CN(C(=O)c4ccc(-c5ccccc5)cc4)C3)CC2)no1	49.9	-3.92	1.34	21.1	-2.62	-4.32	35.7	2.8							
O=c1nc(-c2ccccn2)sc2ccccc12	53.8		2	5.03	10.7	17.4	99.2	-3.04							
CCOC(=O)c1ccc(CN(Cc2ccc(-c3cccc(S(C)(=O)=O)c3)cc2)S(=O)(=O)c2c(C)cc(C)cc2C)o1	46		-3.26	14.1	0.574	-7.63	35	0.52							
CN(C)C(=O)/C(C#N)=C/c1ccc(-c2nc3cnc4c(ccn4C)c3n2C2CCCCC2)o1									95	0.785	2.69	-5.75	-3.8	49.4	-0.285
O=C(NCCCn1ccnc1)c1cc2nc(-c3ccccc3)cc(-c3ccccc3)n2n1	28.3		-4.57	12	-1.93	-9.67	44.7	4.11							
O=C(Nc1cccnn1)N1CCC(=Cc2cccc(Oc3ccc(C(F)(F)F)cn3)c2)CC1	65.2		5.94	17	-7.84	-7.12	59.6	0.719							
CN(C)C(=O)Cn1cc(-c2nc(C3(c4ccc(-c5cnc(N)nc5)cc4)CC3)no2)cn1	22.8		-5.89	11.1	28.7	0.0213	43.7	1.06							
CN([C@@H]1CCc2c(CC(=O)O)c3ccccc3n2C1)S(=O)(=O)c1ccc(F)cc1	28.2		10.6	15.5	5.88	-4.06	9.01	2.73							
C[C@H](c1ccc(F)cc1)N(Cc1cccc(C(=O)O)c1)C(=O)c1cnc2ccccc2c1	54.2		5.94	15.5	-1.34	0.531	99.9	1.51							

— ChEMBL document CHEMBL5665443, “Enzyme Inhibitor Single Concentration assay results for EUbOPEN Chemogenomics Library” (2024)
